Assays:
[1] = test system: MV4-11; assay: CellTiter-GLO (CTG) assay, combinatorial matrix; format: cell-based; settings: MV4-11, CTG matrix of the IMT with Bcl-2 inhibitor (Venetoclax, Table 10), wide concentration range
Procedure: To determine the in vitro cellular viability, cellular ATP concentrations were measured using a luminescence-based homogenous assay format, as described here. […] Optimal cell density for each cell line was determined to guarantee linearity. For viability assays with compounds, cells were then seeded at a density of 200 to 1000 per well in 25 μl in 384-well plates (Greiner Bio-One, Frickenhausen, Germany). After overnight incubation at 37° C./5% CO2, 25 nl or 75 nl compounds were added to each sample well by using BIOMEK FXP Laboratory Automation Workstation (Beckman Coulter, USA). Wells with cells and 0.1% or 0.3% DMSO in culture medium were used as positive controls, wells with cells and 10 μM staurosporine (Selleck Chemicals, Huston, USA) in culture medium were used as negative controls. […] Luminescence was measured by Envision Plate Reader (Perkin Elmer, USA). […]
The general suitability of IMT substances for a combination with standard inhibitors of the Bcl-2 signalling pathway was first determined in in vitro cell culture experiments in a matrix format (Table 10). The changes in the cellular ATP content, as an indicator of the metabolic activity of the cells, were measured using the CellTiter-GLO Assay (CTG), as described in Example 1).

[2] = test system: MOLM-13; assay: apoptosis induction, flow cytometry; format: cell-based
Procedure: (§1) This analysis was carried out using flow cytometry and the established cellular markers for necrosis, apoptosis and living cells.
(§2) These experiments were followed by a broader analysis of the apoptosis induction by the inhibitor combination used in the four AML cell lines MV4-11, MOLM-13, OCI-AML3 and OCI-AML2 (FIG. 3). This analysis was carried out using flow cytometry and the established cellular markers for necrosis, apoptosis and living cells.

[3] = test system: MV4-11; assay: apoptosis induction, flow cytometry; format: cell-based
Procedure: as §1, §2

[4] = test system: OCI-AML2; assay: apoptosis induction, flow cytometry; format: cell-based; settings: IMT alone, flow cytometry (FIG. 3)
Procedure: as §1, §2

[5] = test system: OCI-AML3; assay: apoptosis induction, flow cytometry; format: cell-based; settings: IMT alone, flow cytometry (FIG. 3)
Procedure: as §1, §2

[6] = PK and toxicological studies, plasma and liver concentrations; format: in vivo; settings: oral combination of the IMT and Venetoclax in 0.5% methyl cellulose in water, NBSGW mice, 4 hours, plasma and liver (FIG. 4)
Procedure: Combinations s of 2-[(3R)-1-[(2R)-2-[4-(2-chloro-4-fluoro-phenyl)-2-oxo-chromen-7-yl]oxypropanoyl]-3-piperidyl]acetic acid and Venetoclax were administered orally in a formulation of 0.5% methyl cellulose in water, before the respective substance concentrations (y-axis) of Venetoclax (left) or 2-[(3R)-1-[(2R)-2-[4-(2-chloro-4-fluoro-phenyl)-2-oxo-chromen-7-yl]oxypropanoyl]-3-piperidyl]acetic acid (right) after 4 hours and extraction from blood plasma or liver tissue were analysed by LC-MS. Error bars indicate the standard deviation around the mean of the multiple measurements.
For this, a vehicle formulation suitable for the oral administration of the combination of Venetoclax and 2-[(3R)-1-[(2R)-2-[4-(2-chloro-4-fluoro-phenyl)-2-oxo-chromen-7-yl]oxypropanoyl]-3-piperidyl]acetic acid was prepared to examine its pharmacokinetic suitability. Since the formulations based on ethanol, PEG-400 and Phosal that have been published for Venetoclax have not proven to be suitable for generating an administrable solution or suspension of IMT and Venetoclax, a simplified formulation of 0.5% methyl cellulose in water was prepared, which was tested initially in PK and toxicological studies in NBSGW mice (FIG. 4). […] On the other hand, doses that could be safely used were established in this mouse model, with which the subsequent studies could be carried out.

[7] = test system: Venetoclax-resistant PDX AML cells; assay: in vivo PDX study in a Venetoclax-resistant model; settings: NSGS mice
Text: A=overview of the study implementation (corresponding to FIG. 5A) in NSGS mice injected with spleenocytes (n=12). B=flow cytometric analysis and % of live hCD45+AML cells in peripheral blood, spleen and bone marrow of the treated groups; C=immunohistological analysis of bone marrow and spleen tissue sections stained with hcd45 (brown); Quantitative analysis of the hCD45+ cells from C with three technical replicates (n=2). E=blood analysis of the survival group; F=Kaplan-Meier survival analysis (n=6 per group). […] The procedure was similar to that previously described for the CDX model, except for the addition of an endpoint control cohort in each treatment group.

[8] = IMT alone, flow cytometry (FIG. 3)
[9] = IMT combined with Venetoclax, compared to Venetoclax alone

C[C@@H](Oc1ccc2c(-c3ccc(F)cc3Cl)cc(=O)oc2c1)C(=O)N1CCC[C@H](CC(=O)O)C1 [2-[(3R)-1-[(2R)-2-[4-(2-chloro-4-fluoro-phenyl)-2-oxo-chromen-7-yl]oxypropanoyl]-3-piperidyl]acetic acid]
combinatorial effect (cellular ATP content) [1]: additive or even synergistic effect
induction of apoptosis [2, 8]: cannot trigger apoptosis
induction of apoptosis [2, 9]: increases the induction of apoptosis significantly
induction of apoptosis [3, 8]: cannot trigger apoptosis
induction of apoptosis [3, 9]: increases the induction of apoptosis significantly
induction of apoptosis [4]: cannot trigger apoptosis
induction of apoptosis [5]: cannot trigger apoptosis
PK parameters, in particular the plasma and tissue concentrations [6]: do not significantly influence one another
tumour load and circulating hCD45-positive AML cells ([7]; IMT combined with Venetoclax vs individual inhibitors or control, peripheral blood, bone marrow, spleen (FIG. 6)): significantly lower
overall survival (survival analysis) ([7]; IMT/Bcl-2i combination, treatment lasting 21 days): long-lasting, synergistic effect
